The compounds below were run against T1, DGKE (Diacylglycerol kinase epsilon) (Homo sapiens, UniProt P52429) (assay: SILAC LC-MS ATP acyl phosphate probe competition, recombinant DGK-HEK293T lysates). Conditions: site DAGKa (K392); membrane fraction; ATP 1 mM; Ketanserin, Ritanserin 100 μM; RF001 1 mM.
T1 construct: expressed in transfected cells; host or cells: SILAC HEK293T, membrane fraction
T1 sequence (P52429 1-567): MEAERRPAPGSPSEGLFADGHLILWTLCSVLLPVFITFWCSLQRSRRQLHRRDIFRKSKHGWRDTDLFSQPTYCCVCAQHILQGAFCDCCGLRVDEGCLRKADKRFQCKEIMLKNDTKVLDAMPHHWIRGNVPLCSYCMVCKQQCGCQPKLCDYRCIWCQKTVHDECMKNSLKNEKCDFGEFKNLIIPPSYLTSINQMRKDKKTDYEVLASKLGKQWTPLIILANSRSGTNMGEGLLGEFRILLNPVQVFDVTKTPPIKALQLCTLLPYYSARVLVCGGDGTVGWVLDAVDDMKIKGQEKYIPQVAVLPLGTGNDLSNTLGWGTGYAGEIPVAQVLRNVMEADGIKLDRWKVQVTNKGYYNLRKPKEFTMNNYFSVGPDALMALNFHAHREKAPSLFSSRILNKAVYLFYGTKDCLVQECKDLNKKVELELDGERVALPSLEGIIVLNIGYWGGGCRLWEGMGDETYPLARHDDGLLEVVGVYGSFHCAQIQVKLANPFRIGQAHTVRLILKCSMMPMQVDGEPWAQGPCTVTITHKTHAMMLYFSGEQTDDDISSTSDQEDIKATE
Assay type: binding
Description: Recombinant DGK proteins were produced by transient transfection of HEK293T cells with recombinant DNA. pDONR223-DGKK was a gift from William Hahn & David Root (Addgene plasmid #23487). pCSF107mT-GATEWAY-3′-FLAG was a gift from Todd Stukenberg (Addgene plasmid #67619). pCSF107mT-DGKK-FLAG construct was generated by recombination of the Addgene plasmids using the Gateway cloning system (Invitrogen). All other vectors were gifted to Dr. Kevin Lynch (University of Virginia, School of Medicine) by Dr. Kaoru Goto (Yamagata University, School of Medicine) and Dr. Fumio Sakane (Chiba University) and were kindly shared with us: pcDNA3-FLAG-DGKA (rat), pCMV-Tag2B-FLAG-DGKQ (human), pcDNA3-DGKE-3×Flag (human), and pCMV-SPORT6-HA-DGKZ (human). HEK293T cells were plated at a concentration of 400,000 cells in complete DMEM and grown to 50-60% confluency. A polyethyleneimine (PEI) stock solution was prepared (1 mg/mL, pH 7.4) and filter sterilized. Serum-free DMEM (600 μL) was mixed gently with 2.6 μg DNA and 20 μL of sterile PEI (1 mg/mL, pH 7.4) in a sterile microfuge tube. Mixtures were incubated for 30 min at 25° C. The mixture was then added drop-wise to each 10 cm^2 plate, rocked back and forth to mix, and placed back in the incubator. Cell pellets were harvested after two full days of growth, snap-frozen in liquid N2, and stored at −80° C. until use. Recombinant proteins were produced by transient transfection in SILAC HEK293T cells using the procedure described above, except that cells were plated at a concentration of 1×10^6 cells per 10 cm^2 plate and grown to ˜70% confluency prior to introducing transfection mixture.
Cell pellets were resuspended in kinase buffer (Dulbecco's PBS (DPBS, Hyclone), 20 mM MgCl2, EDTA-free protease inhibitors (Pierce)) and then lysed by sonication (3×1 sec pulse, 20% amplitude). The cell lysates were then subjected to centrifugation (100,000×g, 45 min at 4° C.) to isolate the cytosolic fraction in the supernatant and the membrane fraction as a pellet. […] Protein concentrations were measured using the Bio-Rad DC protein assay. […]

| SILAC ratio, DGKE DAGKa probe-modified peptide | SMILES |
| --- | --- |
| 1.3 | O=C(c1ccc(F)cc1)C1CCN(CCn2c(=O)[nH]c3ccccc3c2=O)CC1 [Ketanserin] |
| 0.7 | Fc1ccc(C(=C2CCNCC2)c2ccc(F)cc2)cc1 [RF001, 4-(Bis(4-fluorophenyl)methylene) piperidine] |

| SMILES | SILAC ratio, DGKE DAGKa probe-modified peptide |
| --- | --- |
| Cc1nc2sccn2c(=O)c1CCN1CCC(=C(c2ccc(F)cc2)c2ccc(F)cc2)CC1 [Ritanserin] | 1.0 |
